In US11643429B2, “Compounds and methods for the treatment of ocular disorders” (Azura Ophthalmics Ltd., priority 2019, dated 2023):
Like-named read-outs stand apart in the source and are kept apart here.

Assays:
[1] = Aqueous Hydrolysis Stability Assay; format: physicochemical; conditions: 50 mM HEPES buffer pH 7.5, read-out: T1/2 Aq Stability
Description: Determination of aqueous stability of the test compounds was performed using HIPLC-MS. A test compound 10 mM stock solution was prepared in DMSO. 10 μl of the DMSO stock solution was dissolved in 990 μl of 50 mM HEPES pH 7.5 buffer or 1:1 (v/v) of Acetonitrile:Water to make a 100 μM solution. Final DMSO concentration was 1%. The solution was kept at room temperature and injected without delay into the LCMS (Waters Xevo TQ-S or Micromass Ultima). Additional injections were performed at appropriate time points. Half-life (T1/2) of the parent conjugate was calculated using the peak area of the parent conjugate at each time point in the linear region of the log-linear plot.

[2] = Rabbit Cornea Homogenate Stability Assay (Rabbit Cornea Esterase Assay); format: in vitro ADME; conditions: New Zealand White, 37° C., half-life of parent conjugate
Description: Determining Rabbit Cornea Homogenate stability of the test compounds was performed using HPLC-MS. The assay was performed at two concentrations of Rabbit Cornea Homogenate (0.15 mg/ml and 0.45 mg/ml total protein) so that any hydrolysis observed could be assigned as esterase dependent or not.
Five rabbit corneas (e.g. New Zealand Whites) of approx. 50 mg each were sliced and scraped with a scalpel and tweezers until reduced to small (1-3 mm), thin pieces. These were transferred into a tared vial and accurately weighed, then diluted with 10 volumes aqueous PBS pH7.4
Sample was cooled intermittently on ice and shear homogenized for 3 minutes, then centrifuged for 3 min at 3000 rpm. The supernatant was pipetted off into a vial, and total protein concentration determined at 280 nm. Sample was stored at −78° C.
10 mM Compound stocks were diluted to 100 μM in a 96 deep-well plate: 10 μl of 10 mM Compound stock was added to 990 μl 50 mM HEPES, pH7.5 buffer.
Compounds were further diluted to 10 μM: 100 μl of 100 μM compound was added to 900 μl 50 mM HEPES, pH7.5 buffer.
Esterase homogenate was diluted to 300 ng/μl and 900 ng/μl
A heater shaker was set to 37° C. Into a suitable 96 well plate (Run Plate), 75 μl of 300 or 900 ng/μl esterase homogenate was pipetted into each of the required wells (2 min, 5 min, 10 min, 20 min and 45 min). The plate was sealed and then warmed at 37° C. for 5 min. Another 96 well PCR plate was put on ice (Kill Plate). To this was added 100 μl of MeCN to each well, labelled 0 min 2 min, 5 min, 10 min, 20 min and 45 min. The plate was covered to minimise evaporation. For the T=0 sample only, to the 100 μl cold MeCN stop solution was added 50 μl of 300 or 900 ng/μl esterase homogenate followed by 50 μl of 10 μM compound solution For the remaining timepoints, 75 μl of 10 μM compound solution was added to the Run Plate starting from T=45 min row and ending with T=2 min row. At the appropriate time point, 100 μl of the assay mixture was added to the matching kill plate well containing 100 μl of cold MeCN. Samples were analysed as soon as practicable by LCMS (Waters Xevo TQ-S or Micromass Ultima). Parent conjugate and parent concentrations were determined against appropriate standard response curves and the half-life (T1/2) of the parent conjugate was calculated using the peak area of the parent conjugate at each time point in the linear region of the log-linear plot.

[3] = pH 7.5, Rabbit Cornea Homogenate 0.15 mg/ml total protein, read-out: T1/2 Esterase (min) (0.15 mg/ml Homogenate)
[4] = pH 7.5, Rabbit Cornea Homogenate 0.45 mg/ml total protein, read-out: T1/2 Esterase (min) (0.45 mg/ml Homogenate)

| SMILES | half-life at 100 µM ([1]; HEPES pH 7.5, room temperature) | half-life at 5 µM [2, 3] | half-life at 5 µM [2, 4] | half-life at 100 µM ([1]; ND, estimated, in HEPES pH 7.5) |
| --- | --- | --- | --- | --- |
| CC[C@H]1OC(=O)[C@H](C)[C@@H](O[C@H]2C[C@@](C)(OC)[C@@H](OC(C)=O)[C@H](C)O2)[C@H](C)[C@@H](O[C@@H]2O[C@H](C)C[C@H](N(C)C)[C@H]2O)[C@](C)(O)C[C@@H](C)CN(C)[C@H](C)[C@@H](O)[C@]1(C)O [Compound 13, (2S,3S,4R,6R)-6-(((2R,3S,4R,5R,8R,10R,11R,12S,13S,14R)-11-(((2S,3R,4S,6R)-4-(Dimethylamino)-3-hydroxy-6-methyltetrahydro-2H-pyran-2-yl)oxy)-2-ethyl-3,4,10-trihydroxy-3,5,6,8,10,12,14-heptamethyl-15-oxo-1-oxa-6-azacyclopentadecan-13-yl)oxy)-4-methoxy-2,4-dimethyltetrahydro-2H-pyran-3-yl acetate] | > 120 min | > 120 min | > 120 min |  |
| CC[C@H]1OC(=O)[C@H](C)[C@@H](O[C@H]2C[C@@](C)(OC)[C@@H](O)[C@H](C)O2)[C@H](C)[C@@H](O[C@@H]2O[C@H](C)C[C@H](N(C)C)[C@H]2OC(=O)SC[C@H](NC(C)=O)C(=O)OC)[C@](C)(O)C[C@@H](C)CN(C)[C@H](C)[C@@H](O)[C@]1(C)O [Compound 14, Methyl N-acetyl-S-((((2S,3R,4S,6R)-4-(dimethylamino)-2-(((2R,3S,4R,5R,8R,10R,11R,12S,13S,14R)-2-ethyl-3,4,10-trihydroxy-13-(((2R,4R,5S,6S)-5-hydroxy-4-methoxy-4,6-dimethyltetrahydro-2H-pyran-2-yl)oxy)-3,5,6,8,10,12,14-heptamethyl-15-oxo-1-oxa-6-azacyclopentadecan-11-yl)oxy)-6-methyltetrahydro-2H-pyran-3-yl)oxy)carbonyl)-L-cysteinate] | > 120 min | > 120 min | > 120 min |  |
| CC[C@H]1OC(=O)[C@H](C)[C@@H](O[C@H]2C[C@@](C)(OC)[C@@H](O)[C@H](C)O2)[C@H](C)[C@@H](O[C@@H]2O[C@H](C)C[C@H](N(C)C)[C@H]2OC(=O)[C@H](C)OC(=O)[C@@H](C)O)[C@](C)(O)C[C@@H](C)CN(C)[C@H](C)[C@@H](O)[C@]1(C)O [Compound 7, (2S,3R,4S,6R)-4-(Dimethylamino)-2-(((2R,3S,4R,5R,8R,10R,11R,12S,13S,14R)-2-ethyl-3,4,10-trihydroxy-13-(((2R,4R,5S,6S)-5-hydroxy-4-methoxy-4,6-dimethyltetrahydro-2H-pyran-2-yl)oxy)-3,5,6,8,10,12,14-heptamethyl-15-oxo-1-oxa-6-azacyclopentadecan-11-yl)oxy)-6-methyltetrahydro-2H-pyran-3-yl(S)-2-(((R)-2-hydroxypropanoyl)oxy)propanoate] |  |  |  | < 3 min |
| CC[C@H]1OC(=O)[C@H](C)[C@@H](O[C@H]2C[C@@](C)(OC)[C@@H](O)[C@H](C)O2)[C@H](C)[C@@H](O[C@@H]2O[C@H](C)C[C@H](N(C)C)[C@H]2OC(=O)COCCOCCOCCOCCO)[C@](C)(O)C[C@@H](C)CN(C)[C@H](C)[C@@H](O)[C@]1(C)O [Compound 4, (2S,3R,4S,6R)-4-(Dimethylamino)-2-(((2R,3S,4R,5R,8R,10R,11R,12S,13S,14R)-2-ethyl-3,4,10-trihydroxy-13-(((2R,4R,5S,6S)-5-hydroxy-4-methoxy-4,6-dimethyltetrahydro-2H-pyran-2-yl)oxy)-3,5,6,8,10,12,14-heptamethyl-15-oxo-1-oxa-6-azacyclopentadecan-11-yl)oxy)-6-methyltetrahydro-2H-pyran-3-yl 14-hydroxy-3,6,9,12-tetraoxatetradecanoate] | 5.7 min |  |  |  |
| CC[C@H]1OC(=O)[C@H](C)[C@@H](O[C@H]2C[C@@](C)(OC)[C@@H](O)[C@H](C)O2)[C@H](C)[C@@H](O[C@@H]2O[C@H](C)C[C@H](N(C)C)[C@H]2OC(=O)[C@@H](C)OC(C)=O)[C@](C)(O)C[C@@H](C)CN(C)[C@H](C)[C@@H](O)[C@]1(C)O [Compound 8, (2S,3R,4S,6R)-4-(Dimethylamino)-2-(((2R,3S,4R,5R,8R,10R,11R,12S,13S,14R)-2-ethyl-3,4,10-trihydroxy-13-(((2R,4R,5S,6S)-5-hydroxy-4-methoxy-4,6-dimethyltetrahydro-2H-pyran-2-yl)oxy)-3,5,6,8,10,12,14-heptamethyl-15-oxo-1-oxa-6-azacyclopentadecan-11-yl)oxy)-6-methyltetrahydro-2H-pyran-3-yl (R)-2-acetoxypropanoate] |  |  |  | < 3 min |
| CC[C@H]1OC(=O)[C@H](C)[C@@H](O[C@H]2C[C@@](C)(OC)[C@@H](O)[C@H](C)O2)[C@H](C)[C@@H](O[C@@H]2O[C@H](C)C[C@H](N(C)C)[C@H]2OC(=O)[C@@H](C)OC(=O)[C@H](CS)NC(C)=O)[C@](C)(O)C[C@@H](C)CN(C)[C@H](C)[C@@H](O)[C@]1(C)O [Compound 6, (R)-1-(((2S,3R,4S,6R)-4-(Dimethylamino)-2-(((2R,3S,4R,5R,8R,10R,11R,12S,13S,14R)-2-ethyl-3,4,10-trihydroxy-13-(((2R,4R,5S,6S)-5-hydroxy-4-methoxy-4,6-dimethyltetrahydro-2H-pyran-2-yl)oxy)-3,5,6,8,10,12,14-heptamethyl-15-oxo-1-oxa-6-azacyclopentadecan-11-yl)oxy)-6-methyltetrahydro-2H-pyran-3-yl)oxy)-1-oxopropan-2-yl acetyl-L-cysteinate] |  |  |  | < 3 min |
| CC[C@H]1OC(=O)[C@H](C)[C@@H](O[C@H]2C[C@@](C)(OC)[C@@H](O)[C@H](C)O2)[C@H](C)[C@@H](O[C@@H]2O[C@H](C)C[C@H](N(C)C)[C@H]2OC(=O)[C@@H](C)O)[C@](C)(O)C[C@@H](C)CN(C)[C@H](C)[C@@H](O)[C@]1(C)O [Compound 2, (2S,3R,4S,6R)-4-(Dimethylamino)-2-(((2R,3S,4R,5R,8R,10R,11R,12S,13S,14R)-2-ethyl-3,4,10-trihydroxy-13-(((2R,4R,5S,6S)-5-hydroxy-4-methoxy-4,6-dimethyltetrahydro-2H-pyran-2-yl)oxy)-3,5,6,8,10,12,14-heptamethyl-15-oxo-1-oxa-6-azacyclopentadecan-11-yl)oxy)-6-methyltetrahydro-2H-pyran-3-yl (R)-2-hydroxypropanoate] | < 3 min |  |  |  |
| CC[C@H]1OC(=O)[C@H](C)[C@@H](O[C@H]2C[C@@](C)(OC)[C@@H](O)[C@H](C)O2)[C@H](C)[C@@H](O[C@@H]2O[C@H](C)C[C@H](N(C)C)[C@H]2OC(=O)CO)[C@](C)(O)C[C@@H](C)CN(C)[C@H](C)[C@@H](O)[C@]1(C)O [Compound 1, (2S,3R,4S,6R)-4-(Dimethylamino)-2-(((2R,3S,4R,5R,8R,10R,11R,12S,13S,14R)-2-ethyl-3,4,10-trihydroxy-13-(((2R,4R,5S,6S)-5-hydroxy-4-methoxy-4,6-dimethyltetrahydro-2H-pyran-2-yl)oxy)-3,5,6,8,10,12,14-heptamethyl-15-oxo-1-oxa-6-azacyclopentadecan-11-yl)oxy)-6-methyltetrahydro-2H-pyran-3-yl 2-hydroxyacetate] |  |  |  | < 3 min |
| CC[C@H]1OC(=O)[C@H](C)[C@@H](O[C@H]2C[C@@](C)(OC)[C@@H](O)[C@H](C)O2)[C@H](C)[C@@H](O[C@@H]2O[C@H](C)C[C@H](N(C)C)[C@H]2OC(=O)CCCC[C@@H]2CCSS2)[C@](C)(O)C[C@@H](C)CN(C)[C@H](C)[C@@H](O)[C@]1(C)O [Compound 9, (2S,3R,4S,6R)-4-(Dimethylamino)-2-(((2R,3S,4R,5R,8R,10R,11R,12S,13S,14R)-2-ethyl-3,4,10-trihydroxy-13-(((2R,4R,5S,6S)-5-hydroxy-4-methoxy-4,6-dimethyltetrahydro-2H-pyran-2-yl)oxy)-3,5,6,8,10,12,14-heptamethyl-15-oxo-1-oxa-6-azacyclopentadecan-11-yl)oxy)-6-methyltetrahydro-2H-pyran-3-yl 5-((R)-1,2-dithiolan-3-yl)pentanoate] |  |  |  | < 3 min |
